Measured values reported in publication PMC4133124 (Clinical pharmacokinetics, 2014).
Like-named read-outs stand apart in the source and are kept apart here.

Columns and labels:
[1] = Sitagliptin pharmacokinetics published in the literature; format: in vivo, human; conditions: comparison with ref 9
[2] = Sitagliptin plasma pharmacokinetics in adults after single-unit UCB HCT; format: in vivo, human
[3] = cited from earlier work
[4] = 600 mg OD, HCT population; ref Farag, S.S. et al. [9]; cited from earlier work
[5] = tested on: engraftment of single unit UCB transplants; conditions: single unit UCB HCT, sitagliptin 600 mg OD days −1 to +2; cited from earlier work
[6] = cited from earlier work; remark: listed apart in the source
[7] = bootstrap analysis median [5 – 95th percentiles], 200 data sets
[8] = population estimate (RSE%), 600 mg OD oral, HCT patients
[9] = 83 mg OD, ref Vincent, S.H. et al. [12]
[10] = 100 mg OD, ref Herman, G.A. et al. [14]
[11] = 100 mg OD, ref Kim, B.H. et al. [13]
[12] = 200 mg BID, ref Herman, G.A. et al. [16]
[13] = 600 mg OD, ref Bergman, A.J. et al. [10]
[14] = 600 mg OD, ref Herman, G.A. et al. [11]

Compound: N[C@@H](CC(=O)N1CCn2c(nnc2C(F)(F)F)C1)Cc1cc(F)c(F)cc1F [sitagliptin]
- clearance (dose/AUC0-∞) in non-HCT populations lower than in HCT (Farag et al.) [1]: 50%
- VC/F (second line so labelled, row r8) [2, 7]: 207.51 [160.11 – 249.82] L
- ka [2, 7]: 0.22 [0.20 – 0.25] h^−1
- Vd/F ([2]; human, plasma, po, 600 mg): 176 L
- sitagliptin pharmacokinetics in the HCT population lower than published profiles ([2]; in vivo): ~ 50%
- CL/F, total apparent oral clearance [2, 8]: 84.79 (11.91) L/h
- Q/F, inter-compartmental distribution clearance [2, 8]: 14.29 (13.25) L/h
- VC/F (second line so labelled, row r8) [2, 8]: 217.62 (13.19) L
- ka, first order rate constant of absorption [2, 8]: 0.22 (7.47) h^−1
- AUC0-∞ [3, 9]: 2460.15 ng·h/mL
- Cmax [3, 9]: 309.14 ng/mL
- AUC0-∞ ([3]; 100 mg OD, ref Bergman, A. et al. [15]): 3470.28 ng·h/mL
- AUC0-∞ ([3]; 100 mg OD, ref Bergman, A. et al. [17]): 3217.74 ng·h/mL
- AUC0-∞ [3, 10]: 3523.23 ng·h/mL
- Cmax [3, 10]: 390.61 ng/mL
- AUC0-∞ [3, 11]: 2407.23 ng·h/mL
- Cmax [3, 11]: 383.17 ng/mL
- AUC0-12 (column AUC0-∞, footnote b) [3, 12]: 5987.45 ^b ng·h/mL
- Cmax [3, 12]: 928.66 ng/mL
- AUC0-24 (column AUC0-∞, footnote a) [3, 13]: 22772.81 ^a ng·h/mL
- Cmax [3, 13]: 3156.65 ng/mL
- AUC0-∞ [3, 14]: 22402.05 ng·h/mL
- Cmax [3, 14]: 3437.7 ng/mL
- renal elimination ([3]; glomerular filtration and active secretion): 87%
- administered dose metabolized via CYP3A and 2C8 ([3]; healthy volunteers and patients with type 2 diabetes mellitus): 16%
- bioavailability ([3]; healthy volunteers): 87%
- AUC0-∞ [4]: 11661 ng·h/mL
- Cmax [4]: 1690 ng/mL
- median time to engraftment [5]: 21 days
- protein-bound [6]: 34–46%
